Results reported in patent US11214564B2, “Compounds with thymine skeleton for use in medicine” (TECHNISCHE UNIVERSITÄT DRESDEN, priority 2019, dated 2022).

target: HSP27 (Homo sapiens, UniProt P04792); test: Aggregation assay: HSP27 chaperone activity on heat-induced aggregation of citrate synthase; format: biochemical; settings: compound 10 μM; 1.44 μM CS, 481 nM HSP27, 43° C., 500 nm
Experimental: To test how small molecules affect the chaperone activity of HSP27, misfolding and aggregation of citrate synthase (CS), a well-known in vitro client protein of HSP27, was measured. Citrate synthase misfolds and aggregates when exposed to heat shock at 43° C. This heat denaturation is prevented or delayed in the presence of HSP27 (CS+HSP27) (Jakob et al. (1993)). […] The samples were incubated at 43° C. and the aggregation behavior of CS was monitored in a spectrometer (PerkinElmer LS55) at a wavelength of 500 nm. Substances inhibiting HSP27's chaperone activity lead to continued denaturation of the client protein and its aggregation in solution. This inhibition correlates with the strength of the interaction between HSP27 and the test substance, which is related to its binding efficiency.
In the reference experiment BVDU (CS+HSP27+BVDU) was tested at a concentration of 750 μM as previously described (Heinrich et al. (2016)).
The compounds according to the invention were tested at a concentration of 10 μM.

Sequence of HSP27 (P04792 whole entry): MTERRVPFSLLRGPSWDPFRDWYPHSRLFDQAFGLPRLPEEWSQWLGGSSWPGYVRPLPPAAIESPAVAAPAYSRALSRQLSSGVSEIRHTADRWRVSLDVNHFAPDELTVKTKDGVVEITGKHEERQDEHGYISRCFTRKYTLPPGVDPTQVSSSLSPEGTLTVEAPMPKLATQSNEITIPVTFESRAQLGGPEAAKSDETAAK

SMILES | aggregation value related to the value from reference experiment (CS + HSP27 + BVDU), which was set at 1.0
COc1ccc(-c2cccc(CC(=O)Nc3ccc(-n4cc(Cl)c(=O)[nH]c4=O)cc3)c2)cc1Cl [Compound 30, N-(4-(5-chloro-2,4-dioxo-3,4-dihydro-pyrimidin-1(2H)-yl)phenyl)-2-(3′-chloro-4′-methoxy-[1,1′-biphenyl]-3-yl)acetamide] | 0.79
COc1ccc(-c2cccc(CC(=O)Nc3ccc(-n4cc(C)c(=O)[nH]c4=O)cc3)c2)cc1 [Compound 31, 2-(4′-methoxy-[1,1′-biphenyl]-3-yl)-N-(4-(5-methyl-2,4-dioxo-3,4-dihydro-pyrimidin-1(2H)-yl)phenyl) acetamide] | 0.78
O=C(Cc1cccc(-c2ccc(Cl)c(Cl)c2)c1)Nc1ccc(-n2ccc(=O)[nH]c2=O)cc1F [Compound 32, 2-(3′,4′-dichloro-[1,1′-biphenyl]-3-yl)-N-(4-(2,4-dioxo-3,4-dihydro-pyrimidin-1(2H)-yl)-2-fluoro-phenyl)acetamide] | 0.76
Cc1cccc(-c2cccc(CC(=O)Nc3ccc(-n4ccc(=O)[nH]c4=O)cc3)c2)c1 [Compound 33, N-(4-(2,4-dioxo-3,4-dihydro-pyrimidin-1(2H)-yl)phenyl)-2-(3′-methyl-[1,1′-biphenyl]-3-yl) acetamide] | 0.69
O=C(Nc1ccc(Cn2ccc(=O)[nH]c2=O)cc1)c1cccc(-c2ccc(Cl)c(Cl)c2)c1 [Compound 34, 3′,4′-dichloro-N-(4-((2,4-dioxo-3,4-dihydro-pyrimidin-1(2H)-yl)methyl)phenyl)-[1,1′-biphenyl]-3-carboxamide] | 1.8
O=C(Nc1ccc(Cn2ccc(=O)[nH]c2=O)cc1)c1cccc(-c2cccc(OC(F)(F)F)c2)c1 [Compound 35, N-(4-((2,4-dioxo-3,4-dihydro-pyrimidin-1(2H)-yl)methyl)phenyl)-3′-(trifluoro-methoxy)-[1,1′-biphenyl]-3-carboxamide] | 1.55
O=C(Nc1ccc(Cn2ccc(=O)[nH]c2=O)cc1)c1cccc(-c2cccc(Cl)c2)c1 [Compound 36, 3′-chloro-N-(4-((2,4-dioxo-3,4-dihydro-pyrimidin-1(2H)-yl)methyl)phenyl)-[1,1′-biphenyl]-3-carboxamide] | 1.23
COc1ccc(-c2cccc(C(=O)Nc3ccc(Cn4ccc(=O)[nH]c4=O)cc3)c2)cc1Cl [Compound 37, 3′-chloro-N-(4-((2,4-dioxo-3,4-dihydro-pyrimidin-1(2H)-yl)methyl)phenyl)-4′-methoxy-[1,1′-biphenyl]-3-carboxamide] | 0.91
O=C(Cc1cccc(-c2cccc(OC(F)(F)F)c2)c1)Nc1cccc(-n2ccc(=O)[nH]c2=O)c1 [Compound 39, N-(3-(2,4-dioxo-3,4-dihydro-pyrimidin-1(2H)-yl)phenyl)-2-(3′-(trifluoro-methoxy)-[1,1′-biphenyl]-3-yl) acetamide] | 1.21
O=C(Cc1cccc(-c2ccc(Cl)c(Cl)c2)c1)Nc1cccc(-n2ccc(=O)[nH]c2=O)c1 [Compound 40, 2-(3′,4′-dichloro-[1,1′-biphenyl]-3-yl)-N-(3-(2,4-dioxo-3,4-dihydro-pyrimidin-1(2H)-yl)phenyl) acetamide] | 1.8
COc1ccc(-c2cccc(CC(=O)Nc3cccc(-n4ccc(=O)[nH]c4=O)c3)c2)cc1Cl [Compound 41, 2-(3′-chloro-4′-methoxy-[1,1′-biphenyl]-3-yl)-N-(3-(2,4-dioxo-3,4-dihydro-pyrimidin-1(2H)-yl)phenyl) acetamide] | 1.24
Cc1cccc(-c2cccc(C(=O)Nc3ccc(-n4ccc(=O)[nH]c4=O)cc3)c2)c1 [Compound 42, N-(4-(2,4-dioxo-3,4-dihydro-pyrimidin-1(2H)-yl)phenyl)-3′-methyl-[1,1′-biphenyl]-3-carboxamide] | 0.66
O=C(Cc1cn(-c2ccc(-n3ccc(=O)[nH]c3=O)cc2)nn1)Nc1ccc(Cl)c(Cl)c1 [Compound 52, N-(3,4-dichlorophenyl)-2-(1-(4-(2,4-dioxo-3,4-dihydropyrimidin-1(2H)-yl)phenyl)-1H-1,2,3-triazol-4-yl)acetamide] | 1

More lines, now with the values ahead:

aggregation value related to the value from reference experiment (CS + HSP27 + BVDU), which was set at 1.0 | SMILES
0.79 | O=C(Nc1ccc(-n2ccc(=O)[nH]c2=O)cc1)c1cccc(-c2cccc(Cl)c2)c1 [Compound 43, 3′-chloro-N-(4-(2,4-dioxo-3,4-dihydro-pyrimidin-1(2H)-yl)phenyl)-[1,1′-biphenyl]-3-carboxamide]
0.83 | COc1ccc(-c2cccc(C(=O)Nc3ccc(-n4ccc(=O)[nH]c4=O)cc3)c2)cc1Cl [Compound 44, 3′-chloro-N-(4-(2,4-dioxo-3,4-dihydro-pyrimidin-1(2H)-yl)phenyl)-4′-methoxy-[1,1′-biphenyl]-3-carboxamide]
0.88 | COc1ccc(-c2cccc(C(=O)Nc3ccc(-n4cc(C)c(=O)[nH]c4=O)cc3)c2)cc1Cl [Compound 45, 3′-chloro-4′-methoxy-N-(4-(5-methyl-2,4-dioxo-3,4-dihydro-pyrimidin-1(2H)-yl)phenyl)-[1,1′-biphenyl]-3-carboxamide]
0.75 | COc1cccc(-c2cccc(C(=O)Nc3ccc(-n4cc(C)c(=O)[nH]c4=O)cc3)c2)c1 [Compound 46, 3′-methoxy-N-(4-(5-methyl-2,4-dioxo-3,4-dihydro-pyrimidin-1(2H)-yl)phenyl)-[1,1′-biphenyl]-3-carboxamide]
1.46 | Cc1cn(-c2ccc(NC(=O)c3cccc(-c4cccc(OC(F)(F)F)c4)c3)cc2)c(=O)[nH]c1=O [Compound 47, N-(4-(5-methyl-2,4-dioxo-3,4-dihydro-pyrimidin-1(2H)-yl)phenyl)-3′-(trifluoro-methoxy)-[1,1′-biphenyl]-3-carboxamide]
0.7 | O=C(Nc1ccc(-n2cc(Cl)c(=O)[nH]c2=O)cc1)c1cccc(-c2cccc(OC(F)(F)F)c2)c1 [Compound 48, N-(4-(5-chloro-2,4-dioxo-3,4-dihydro-pyrimidin-1(2H)-yl)phenyl)-3′-(trifluoro-methoxy)-[1,1′-biphenyl]-3-carboxamide]
1.16 | Cc1ccc(-c2cccc(C(=O)Nc3ccc(-n4cc(C)c(=O)[nH]c4=O)cc3)c2)cc1Cl [Compound 49, 3′-chloro-4′-methyl-N-(4-(5-methyl-2,4-dioxo-3,4-dihydro-pyrimidin-1(2H)-yl)phenyl)-[1,1′-biphenyl]-3-carboxamide]
0.73 | Cc1ccc(-c2cccc(C(=O)Nc3ccc(-n4ccc(=O)[nH]c4=O)cc3)c2)cc1Cl [Compound 50, 3′-chloro-N-(4-(2,4-dioxo-3,4-dihydro-pyrimidin-1(2H)-yl)phenyl)-4′-methyl-[1,1′-biphenyl]-3-carboxamide]
0.73 | O=C(Cc1cccc(-c2ccc(Cl)c(Cl)c2)c1)Nc1ccc(-n2cc(Cl)c(=O)[nH]c2=O)cc1 [Compound 51, N-(4-(5-chloro-2,4-dioxo-3,4-dihydro-pyrimidin-1(2H)-yl)phenyl)-2-(3′,4′-dichloro-[1,1′-biphenyl]-3-yl)acetamide]
1.67 | O=C(Cc1cn(-c2ccc(-n3ccc(=O)[nH]c3=O)cc2)nn1)NCc1ccc(Cl)c(Cl)c1 [Compound 53]
1.42 | O=C(NCc1cn(-c2ccc(-n3ccc(=O)[nH]c3=O)cc2)nn1)c1ccc(Cl)c(Cl)c1 [Compound 54, 3,4-Dichloro-N-((1-(4-(2,4-dioxo-3,4-dihydropyrimidin-1(2H)-yl)phenyl)-1H-1,2,3-triazol-4-yl)methyl)benzamide]
1.05 | O=C(Cc1ccc(Cl)c(Cl)c1)NCc1cn(-c2ccc(-n3ccc(=O)[nH]c3=O)cc2)nn1 [Compound 55, 2-(3,4-Dichlorophenyl)-N-((1-(4-(2,4-dioxo-3,4-dihydropyrimidin-1(2H)-yl)phenyl)-1H-1,2,3-triazol-4-yl)methyl)acetamide]
1.39 | O=c1ccn(-c2ccc(-n3cc(-c4ccc(Cl)c(Cl)c4)nn3)cc2)c(=O)[nH]1 [Compound 56, 1-(4-(4-(3,4-Dichlorophenyl)-1H-1,2,3-triazol-1-yl)phenyl)pyrimidine-2,4(1H,3H)-dione]
